Here are results for 38 molecules from patent US8802720B2, “Acylamino-substituted fused cyclopentanecarboxylic acid derivatives and their use as pharmaceuticals” (SANOFI, priority 2008, dated 2014).

pIC50: −log10 of the molar value.

Sequence of human Edg-2 receptor (LPA1 receptor) (Q92633 whole entry): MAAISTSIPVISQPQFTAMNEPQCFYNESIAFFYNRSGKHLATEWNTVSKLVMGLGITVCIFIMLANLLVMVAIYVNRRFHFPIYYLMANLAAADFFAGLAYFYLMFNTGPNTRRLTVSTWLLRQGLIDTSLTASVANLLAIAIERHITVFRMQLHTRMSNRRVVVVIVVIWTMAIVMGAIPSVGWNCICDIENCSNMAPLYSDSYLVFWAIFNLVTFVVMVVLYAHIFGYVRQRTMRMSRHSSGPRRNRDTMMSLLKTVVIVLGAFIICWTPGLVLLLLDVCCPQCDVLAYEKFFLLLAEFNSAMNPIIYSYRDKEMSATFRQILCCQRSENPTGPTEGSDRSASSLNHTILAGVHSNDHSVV

The target in this assay is human Edg-2 receptor (LPA1 receptor) (Homo sapiens, UniProt Q92633). As to the kind of experiment: Edg-2 receptor inhibition by FLIPR calcium fluorescence measurement (LPA-mediated calcium liberation). Format: cell-based. The following applies: CHO cells stably overexpressing human Edg-2 receptor; LPA 18:1 100 nM; fluo-4 fluorescence; triplicate; read-out: Inhibitory concentrations IC50 for inhibition of the Edg-2 receptor. The method in brief:
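CHO cells stably overexpressing human Edg-2 were fluo-4 loaded and pre-incubated ~5 min with compound (≤0.3% DMSO) in HBSS/HEPES/probenecid, pH 7.5. Then LPA 18:1 at 100 nM final was added. Peak calcium fluorescence over ~3 min, baseline-corrected versus DMSO, gave % inhibition in triplicate and IC50.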
As to `COc1ccc(C(=O)NC2(C(=O)O)Cc3ccccc3C2)cc1CCCc1ccccc1` [Example 169, 2-[4-Methoxy-3-(3-phenyl-propyl)-benzoylamino]-indane-2-carboxylic acid], the pIC50 was 6.00 to 7.00.
Next, `COc1ccc(C(=O)NC2(C(=O)O)Cc3ccccc3C2)cc1-c1cc(F)cc(OCC(C)C)c1` [Example 344]: 6.00 to 7.00; `O=C(NC1(C(=O)O)Cc2ccccc2C1)c1ccc(C(F)(F)F)c(OCCc2cc(F)ccc2F)c1` [Example 188]: over 7.00; `COc1ccc(C(=O)NC2(C(=O)O)Cc3ccccc3C2)cc1OCC1CC1C` (centres unmarked) [Example 82]: 4.52 to 6.00.
Next, `COc1ccc(C(=O)NC2(C(=O)O)Cc3ccc(C(N)=O)cc3C2)cc1OCCc1cccc(C)c1` (centres unmarked) [Example 219, 5-Carbamoyl-2-[4-methoxy-3-(2-m-tolyl-ethoxy)-benzoylamino]-indane-2-carboxylic acid]: 4.52 to 6.00; `COc1ncc(C(=O)NC2(C(=O)O)Cc3ccccc3C2)cc1-c1cccc(OC(F)(F)F)c1` [Example 234]: over 7.00.
The value for `COc1ccc(Cl)cc1-c1cc(C(=O)NC2(C(=O)O)Cc3ccccc3C2)ccc1OC` [Example 296] was over 7.00.
Take `COc1ccc(C(=O)NC2(C(=O)O)Cc3ccccc3C2)cc1OCc1ccc(C(C)(C)C)cc1` [Example 40]: the pIC50 is 4.52 to 6.00.
Next, `COc1ccc(C(=O)NC2(C(=O)O)Cc3ccccc3C2)cc1OCCc1cccc(Cl)c1` [Example 132]: over 7.00.
`CCc1ccc(COc2cc(C(=O)NC3(C(=O)O)Cc4ccccc4C3)ccc2OC)cc1` [Example 41]: the pIC50 is 4.52 to 6.00.
The value for `COc1ccc(C(=O)NC2(C(=O)O)Cc3ccccc3C2)cc1NCc1ccc(F)cc1` [Example 121, 2-[3-(4-Fluoro-benzylamino)-4-methoxy-benzoylamino]-indane-2-carboxylic acid] was 4.52 to 6.00.
Consider `N#Cc1ccc(C(=O)NC2(C(=O)O)Cc3ccccc3C2)cc1NCCc1ccccc1F` [Example 175, 2-{4-Cyano-3-[2-(2-fluoro-phenyl)-ethylamino]-benzoylamino}-indane-2-carboxylic acid], for which the pIC50 was 4.52 to 6.00.
With `COc1ccc(C(=O)NC2(C(=O)O)Cc3ccccc3C2)cc1OCc1cc(C)ccc1C` [Example 65], the pIC50 was 4.52 to 6.00.
The value for `Cc1cccc(CCOc2cc(C(=O)NC3(C(=O)O)Cc4ccccc4C3)ccc2[S+](C)[O-])c1` (centres unmarked) [Example 5, 2-[4-Methanesulfinyl-3-(2-m-tolyl-ethoxy)-benzoylamino]-indane-2-carboxylic acid] was 4.52 to 6.00; that for `COc1ncc(C(=O)NC2(C(=O)O)Cc3ccccc3C2)cc1-c1cc(F)c(F)c(F)c1` [Example 229] was over 7.00.
Next, `COc1ccc(C(=O)NC2(C(=O)O)Cc3ccsc3C2)cc1OCCc1cccc(C)c1` (centres unmarked) [Example 99, 5-[4-Methoxy-3-(2-m-tolyl-ethoxy)-benzoylamino]-5,6-dihydro-4H-cyclopenta[b]thiophene-5-carboxylic acid]: over 7.00; `COc1ccc(C(=O)NC2(C(=O)O)Cc3ccccc3C2)cc1-c1cc(F)ccc1OC(C)C` [Example 335]: over 7.00; `COc1ccc(C(=O)NC2(C(=O)O)Cc3ccccc3C2)cc1-c1cc(C(F)(F)F)ccc1F` [Example 320]: over 7.00.
Next, `COc1ccc(C(=O)NC2(C(=O)O)Cc3cscc3C2)cc1OCCc1cccc(C)c1` [Example 98, 5-[4-Methoxy-3-(2-m-tolyl-ethoxy)-benzoylamino]-5,6-dihydro-4H-cyclopenta[c]thiophene-5-carboxylic acid]: over 7.00; `COc1ccc(C(=O)NC2(C(=O)O)Cc3ccccc3C2)cc1-c1ccc(C)c(C)c1` [Example 291]: 6.00 to 7.00; `COc1ccc(C(=O)NC2(C(=O)O)Cc3ccccc3C2)cc1OCCc1cccc(C(F)(F)F)c1F` [Example 155]: 4.52 to 6.00.
In the case of `COc1ccc(C(=O)NC2(C(=O)O)Cc3ccccc3C2)cc1OCC(C)C` [Example 35], the pIC50 is 4.52 to 6.00.
The value for `COc1ccc(C(=O)NC2(C(=O)O)Cc3ccccc3C2)cc1-c1ccc(CC(C)C)cc1` [Example 197] was 4.52 to 6.00.
Next, `Cc1cccc(CCOc2cc(C(=O)NC3(C(=O)O)Cc4ccccc4C3)ccc2OCC2CCOC2)c1` (centres unmarked) [Example 258]: over 7.00; `CCn1cc(COc2cc(C(=O)NC3(C(=O)O)Cc4ccccc4C3)ccc2OC)cn1` [Example 71]: 4.52 to 6.00.
Next, `COc1ccc(C(=O)NC2(C(=O)O)Cc3ccccc3C2)cc1OCCc1cccc(C(=O)O)c1` [Example 96, 2-{3-[2-(3-Carboxy-phenyl)-ethoxy]-4-methoxy-benzoylamino}-indane-2-carboxylic acid]: 4.52 to 6.00.
For the molecule `COc1ccc(C(=O)NC2(C(=O)O)Cc3ccccc3C2)cc1OCCC1CCCC(C)C1` (centres unmarked) [Example 278, 2-{4-Methoxy-3-[2-(3-methyl-cyclohexyl)-ethoxy]-benzoylamino}-indane-2-carboxylic acid], the pIC50 is 4.52 to 6.00.
The value for `COc1ccc(C(=O)NC2(C(=O)O)Cc3ccccc3C2)cc1OCCCc1ccccc1` [Example 151] was 4.52 to 6.00; that for `COc1ccc(C(=O)NC2(C(=O)O)Cc3ccccc3C2)cc1OCCc1cccc(C2CC2)c1` [Example 21, 2-{3-[2-(3-cyclopropyl-phenyl)-ethoxy]-4-methoxy-benzoylamino}-indane-2-carboxylic acid] was over 7.00.
As for `COc1ccc(C(=O)NC2(C(=O)O)Cc3ccccc3C2)cc1OCC(O)c1ccccc1F` (centres unmarked) [Example 167, 2-{3-[2-(2-Fluoro-phenyl)-2-hydroxy-ethoxy]-4-methoxy-benzoylamino}-indane-2-carboxylic acid], the pIC50 was 4.52 to 6.00.
The value for `COc1ccc2c(c1)CC(NC(=O)c1ccc(OC)c(OCCc3cccc(C)c3)c1)(C(=O)O)C2` (centres unmarked) [Example 159, 5-Methoxy-2-[4-methoxy-3-(2-m-tolyl-ethoxy)-benzoylamino]-indane-2-carboxylic acid] was over 7.00; that for `Cc1cccc(CCOc2cc(C(=O)NC3(C(=O)O)Cc4ccccc4C3)ccc2C(C)O)c1` (centres unmarked) [Example 9, 2-[4-(1-Hydroxy-ethyl)-3-(2-m-tolyl-ethoxy)-benzoylamino]-indane-2-carboxylic acid] was 6.00 to 7.00; that for `COc1ccc(C(=O)NC2(C(=O)O)Cc3ccccc3C2)cc1OCC1CCOC1` (centres unmarked) [Example 38] was 4.52 to 6.00.
Next, `COc1cc(C(=O)NC2(C(=O)O)Cc3ccccc3C2)ccc1OCCc1ccccc1Cl` [Example 162, 2-{4-[2-(2-Chloro-phenyl)-ethoxy]-3-methoxy-benzoylamino}-indane-2-carboxylic acid]: 4.52 to 6.00.
Next, `COc1ccc(C(=O)NC2(C(=O)O)Cc3cccc(C)c3C2)cc1OCCc1cccc(C)c1` (centres unmarked) [Example 216, 2-[4-Methoxy-3-(2-m-tolyl-ethoxy)-benzoylamino]-4-methyl-indane-2-carboxylic acid]: over 7.00.
For `COc1ccc(C(=O)NC2(C(=O)O)Cc3ccccc3C2)cc1-c1ccc(C(F)(F)F)c(Cl)c1` [Example 322], the pIC50 is over 7.00.
Regarding `O=C(NC1(C(=O)O)Cc2ccccc2C1)c1ccc(Cl)c(OCCc2cccc(C(F)(F)F)c2)c1` [Example 128], the pIC50 was 6.00 to 7.00.
Next, `COc1c(F)cc(C(=O)NC2(C(=O)O)Cc3ccccc3C2)cc1-c1ccc(Cl)cc1` [Example 358]: over 7.00.
